What was measured:
NCIH460 = assay: Anti-cancer screen (MTT), NCIH460; type: cell-based; conditions: Homo sapiens, NCI-H460, 48 hours with compound, tested at 0.01-100 µM
Method: (§1) Experimental drugs are screened for anti-cancer activity in three cell lines for their GI50, TGI and LC50 values (using five concentrations for each compound). The cell lines are maintained in DMEM containing 10% fetal bovine serum. 96 well micro titer plates are inoculated with cells in 100 µL for 24 hours at 37° C., 5% CO2, 95% air and 100% relative humidity. 5000 HCT 116 cells/well, 5000 NCIH 460 cells/well and 5000 U251 cells/well are plated. A separate plate with these cell lines is also inoculated to determine cell viability before the addition of the compounds (T0).
(§2) Following 24-hour incubation, experimental drugs are added to the 96 well plates. Each plate contains one of the above cell lines and the following in triplicate: five different concentrations (0.01, 0.1, 1, 10 and 100 µM) of four different compounds, appropriate dilutions of a cytotoxic standard and control (untreated) wells. Compounds are dissolved in DMSO to make 20 mM stock solutions on the day of drug addition and frozen at −20° C. Serial dilutions of these 20 mM stock solutions are made in complete growth medium such that 100 µL of these drug solutions in medium, of final concentrations equaling 0.01, 0.1, 1, 10 and 100 µM can be added to the cells in triplicate. Standard drugs whose anti-cancer activity has been well documented and which are regularly used are doxorubicin and SAHA.
(§3) For T0 measurement, 24 hours after seeding the cells, 10 µL of 3-(4,5-Dimethyl-2-thiazolyl)-2,5-diphenyl-2H-tetrazolium (MTT) solution per well is added and incubation carried out for 3 hours at 37° C., 5% CO2, 95% air and 100% relative humidity, protected from light. Cells incubated with compounds for 48 hours are treated similarly except with the addition of 20 µl MTT solution per well and a subsequent incubation under the same conditions. After 3 hours of MTT incubation, well contents are aspirated carefully followed by addition of 150 µL DMSO per well. Plates are agitated to ensure solution of the formazan crystals in DMSO and absorbance read at 570 nm.
(§4) Percent growth is calculated for each compound's concentration relative to the control and zero measurement wells (T0; viability right before compound addition). If a test well's O.D. value is greater than the T0 measurement for that cell line
(§5) %Growth=(test−zero)/(control−zero)×100
(§6) If a test well's O.D. value is lower than the T0 measurement for that cell line, then,
(§7) %Growth=(test−zero)/zero×100

HCT116 = assay: Anti-cancer screen (MTT), HCT116; type: cell-based; conditions: Homo sapiens, HCT-116, 48 hours with compound, tested at 0.01-100 µM
Method: as §1, §2, §3, §4, §5, §6, §7

MDAMB-231/U 251 = assay: Anti-cancer screen (MTT), MDAMB-231/U 251; type: cell-based; conditions: for CC50: 48 h, read-out: MDAMB-231/U 251 LC50; for GI50 / IC (TGI): 48 hours with compound, MTT, tested at 0.01-100 µM
Method: as §1, §2, §3, §4, §5, §6, §7

[1] = tested on: NCIH460, HCT116, MDAMB-231/U 251; assay: Anti-cancer screen, mean GI50 over the cell lines; type: cell-based; conditions: in µM
Method: as §1, §2, §3, §4

HDAC = HDAC inhibition; type: biochemical; conditions: for HDAC Inhibition 1 μM: compound at 1 μM; for HDAC Inhibition 10 μM: compound at 10 μM

Row | SMILES | GI50 (NCIH460) [µM] | IC (TGI) (NCIH460) [µM] | LC50 (NCIH460) [µM] | GI50 (HCT116) [µM] | IC (TGI) (HCT116) [µM] | LC50 (concentration giving 50% net cell kill relative to T0) (HCT116) [µM] | CC50 (MDAMB-231/U 251) [µM] | GI50 (MDAMB-231/U 251) [µM] | IC (TGI) (MDAMB-231/U 251) [µM] | Mean GI50 [1] | HDAC Inhibition 1 μM (HDAC) | HDAC Inhibition 10 μM (HDAC)
1 | O=C(Cc1csc(NC(=O)OCc2cccnc2)n1)Nc1nc2ccccc2s1 [Example 11, Pyridin-3-ylmethyl{4-[2-(1,3-benzothiazol-2-ylamino)-2-oxoethyl]-1,3-thiazol-2-yl}carbamate] | 7 | > 100 | > 100 | > 100 | > 100 | > 100 | > 100 | 5 | 10 | 6 |  | 
2 | O=C(Nc1nc(CC(=O)N2CCC(N3CCCCC3)CC2)cs1)OCc1cccnc1 [Example 13, Pyridin-3-ylmethyl{4-[2-(1,4′-bipiperidin-1′-yl)-2-oxoethyl]-1,3-thiazol-2-yl}carbamate] | 2.8 | 25 | > 100 | > 100 | > 100 | > 100 | > 100 | 0.09 | > 100 | >100 |  | 
3 | CON(C)C(=O)Cc1csc(NC(=O)OCc2cccnc2)n1 [Example 14, Pyridin-3-ylmethyl(4-{2-[methoxy(methyl)amino]-2-oxoethyl}-1,3-thiazol-2-yl)carbamate] | 10 | > 100 | > 100 | 80 | > 100 | > 100 | > 100 | > 100 | > 100 | 45 |  | 
4 | CNC(=O)Cc1csc(NC(=O)OCc2cccnc2)n1 [Example 15, Pyridin-3-ylmethyl{4-[2-(methylamino)-2-oxoethyl]-1,3-thiazol-2-yl}carbamate] | 60 | > 100 | > 100 | 100 | > 100 | > 100 | > 100 | 60 | > 100 | 73.3 |  | 
5 | CN(C)C(=O)Cc1csc(NC(=O)OCc2cccnc2)n1 [Example 16, Pyridin-3-ylmethyl{4-[2-(dimethylamino)-2-oxoethyl]-1,3-thiazol-2-yl}carbamate] | 8 | > 100 | > 100 | > 100 | > 100 | > 100 | > 100 | 20 | > 100 | 14 |  | 
6 | Nc1ccccc1NC(=O)Cc1csc(NC(=O)OCc2c(F)c(F)c(F)c(F)c2F)n1 [Example 22, Pentafluorobenzyl(4-{2-[(2-aminophenyl)amino]-2-oxoethyl}-1,3-thiazol-2-yl)carbamate] | 48 | > 100 | > 100 | 53 | > 100 | > 100 | > 100 | 10 | > 100 | 37 |  | 
7 | O=C(NCc1ccc(C(=O)NO)cc1)OCc1c(F)c(F)c(F)c(F)c1F [Example 29, Pentafluorobenzyl{4-[(hydroxyamino)carbonyl]benzyl}carbamate] | 0.4 | 22.5 | 82.5 | 0.98 | 3.5 | 48 | > 100 | 3.1 | > 100 | 1.5 |  | 
8 | O=C(NCc1ccc(C(=O)NO)cc1)OCc1ccc(C(F)(F)F)cc1 [Example 35, 4-(Trifluoromethyl)benzyl{4-[(hydroxyamino)carbonyl]benzyl}carbamate] | 20 | 50 | 80 | 5 | 12 | 60 | 70 | 0.05 | 15 | 8.4 |  | 
9 | COc1cc(COC(=O)NCc2ccc(C(=O)NO)cc2)cc(OC)c1OC [Example 36, 3,4,5-Trimethoxybenzyl{4-[(hydroxyamino)carbonyl]benzyl}carbamate] | 68 | > 100 | > 100 | 35 | 60 | 85 | 85 | 5.5 | 10 | 36.2 |  | 
10 | O=C(NCc1ccc(C(=O)NO)cc1)OCc1c(F)cc(F)cc1F [Example 38, 2,4,6-Trifluorobenzyl{4-[(hydroxyamino)carbonyl]benzyl}carbamate] | 22 | 52 | 82 | 5 | 20 | 65 | 68 | 0.5 | 8 | 9.2 |  | 
11 | O=C(NCc1ccc(C(=O)NO)cc1)OCCSc1nc2ccccc2s1 [Example 39, 2-(1,3-Benzothiazol-2-ylthio)ethyl{4-[(hydroxyamino)carbonyl]benzyl}carbamate] | 16 | 54 | 82 | 5.5 | 10 | 62 | 65 | 0.4 | 5 | 7.3 |  | 
12 | CNC(=O)c1ccc(CNC(=O)OCc2nc3ccccc3[nH]2)cc1 [Example 41, 1H-Benzimidazol-2-ylmethyl{4-[(methylamino)carbonyl]benzyl}carbamate] | 6 | > 100 | > 100 | 58 | > 100 | > 100 | > 100 | 9 | > 100 | 24.3 |  | 
13 | Nc1ccccc1NC(=O)c1ccc(CNC(=O)OCc2ccsc2)cc1 [Example 49, 3-Thienylmethyl(4-{[(2-aminophenyl)amino]carbonyl}benzyl)carbamate] | 42 | 96 | > 100 | 2 | 59 | > 100 | 82 | 31 | 56 |  | 10.15 | 18.78
14 | CN1CCN(C(=O)c2ccc(CNC(=O)OCc3ccsc3)cc2)CC1 [Example 50, 3-Thienylmethyl{4-[(4-methylpiperazin-1-yl)carbonyl]benzyl}carbamate] | 64 | > 100 | > 100 | 64 | > 100 | > 100 | > 100 | 65 | > 100 |  | −3.95 | 1.45
15 | O=C(NCc1ccc(C(=O)N2CCOCC2)cc1)OCc1ccsc1 [Example 51, 3-Thienylmethyl[4-(morpholin-4-ylcarbonyl)benzyl]carbamate] | 94.5 | > 100 | > 100 | > 100 | > 100 | > 100 | > 100 | > 100 | > 100 |  | 3.20 | 3.18
16 | CS(=O)(=O)Oc1ccc(NC(=O)c2ccc(CNC(=O)OCc3cccs3)cc2)cc1 [Example 70, 4-[(4-{[(2-thienylmethyloxycarbonyl)amino]methyl}benzoyl)amino]phenylmethanesulfonate] |  |  |  |  |  |  |  |  |  | 19.65 |  | 
17 | CCOC(=O)CN(OC)C(=O)c1ccc(CNC(=O)OCc2cccs2)cc1 [Example 109, ethyl{methoxy[4-({[(2-thienylmethoxy)carbonyl]amino}-methyl)benzoyl]amino}acetate] |  |  |  |  |  |  |  |  |  |  | 8.84 | 15.41

Reference: patent publication US20100152188A1, “Novel Heterocyclic Compounds” (priority 2005, published 2010)
